Measurements from the supplement of paper PMC10307832.

Assays:
Experiment in all cases: relative viability (nuclei count vs DMSO), 5 days (fraction); higher = more cells survive
[1] = compound: CC1=C(C(=NN1)C)CC2=C(C3=C(S2)N(C(=O)N(C3=O)C)CC(C)C)C(=O)N4C[C@@H](CO4)O + COc1cccc2cc(-c3nc([C@H]4CC[C@H](C(=O)O)CC4)n4ncnc(N)c34)[nH]c12 [OSI-027] (partner 0.5 µM)
Method in brief: (§1)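 The day after seeding in 1536-well plates, lung cancer cell lines were treated by pin tool with a single drug, or with a fixed anchor-drug dose together with five library-drug doses (not always all listed) in √10 steps. After 5 days, a combined fix-and-stain solution (final 0.05% Triton X-100, 1% formaldehyde, 1 ug/ml Hoechst) was added. Nuclei counted on 4× images gave relative viability as treated counts over vehicle counts, reported as the median of duplicate plates.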

IDH-C35 + Dasatinib = compound: Cc1ccccc1C(C(=O)NC1CCCCC1)N(C(=O)Cn1ccnc1C)c1cccc(F)c1 [IDH-C35] + Cc1nc(Nc2ncc(C(=O)Nc3c(C)cccc3Cl)s2)cc(N2CCN(CCO)CC2)n1 [Dasatinib] (partner 0.075 µM)
Method in brief: as §1

[2] = compound: CC1=C(C(=NN1)C)CC2=C(C3=C(S2)N(C(=O)N(C3=O)C)CC(C)C)C(=O)N4C[C@@H](CO4)O + CS(=O)(=O)N1CCN(Cc2cc3nc(-c4cccc5[nH]ncc45)nc(N4CCOCC4)c3s2)CC1 [Pictilisib] (partner 1 µM)
Method in brief: as §1

IDH-C35 + Lapatinib = compound: Cc1ccccc1C(C(=O)NC1CCCCC1)N(C(=O)Cn1ccnc1C)c1cccc(F)c1 [IDH-C35] + CS(=O)(=O)CCNCc1ccc(-c2ccc3ncnc(Nc4ccc(OCc5cccc(F)c5)c(Cl)c4)c3c2)o1 [Lapatinib] (partner 2 µM)
Method in brief: as §1

Cell Line	relative viability ([1]; first compound 0.0025 µM)	relative viability ([1]; first compound 0.007906 µM)	relative viability ([1]; first compound 0.025 µM)	relative viability ([1]; first compound 0.07906 µM)	relative viability ([1]; first compound 0.25 µM)	relative viability (IDH-C35 + Dasatinib; first compound 0.08 µM)	relative viability (IDH-C35 + Dasatinib; first compound 0.253 µM)	relative viability (IDH-C35 + Dasatinib; first compound 0.8 µM)	relative viability (IDH-C35 + Dasatinib; first compound 2.53 µM)	relative viability (IDH-C35 + Dasatinib; first compound 8 µM)	relative viability ([2]; first compound 0.0025 µM)	relative viability ([2]; first compound 0.007906 µM)	relative viability ([2]; first compound 0.025 µM)	relative viability ([2]; first compound 0.07906 µM)	relative viability ([2]; first compound 0.25 µM)	relative viability (IDH-C35 + Lapatinib; first compound 0.08 µM)	relative viability (IDH-C35 + Lapatinib; first compound 0.253 µM)	relative viability (IDH-C35 + Lapatinib; first compound 0.8 µM)	relative viability (IDH-C35 + Lapatinib; first compound 2.53 µM)	relative viability (IDH-C35 + Lapatinib; first compound 8 µM)
NCI-H522	0.804	0.624	0.608	0.45	0.546	0.977	0.976	0.858	1.01	0.905	–	–	–	–	–	–	–	–	–	–
HCC-15	0.707	0.705	0.691	0.737	0.784	0.542	0.639	0.599	–	0.59	0.76	0.911	0.846	0.782	0.856	0.892	0.776	0.931	0.776	0.781
A-427	0.444	0.569	0.425	0.549	0.477	0.738	0.636	0.685	0.702	0.658	0.733	0.685	0.679	0.843	0.826	1.03	0.978	0.942	1.02	1.03
NCI-H2228	0.68	0.61	0.683	0.609	0.649	0.571	0.526	0.509	0.53	0.537	0.546	0.356	0.439	0.352	0.443	1.02	0.984	0.925	0.985	0.931
NCI-H1734	0.682	0.592	0.65	0.617	0.624	0.469	0.524	0.511	0.458	0.419	0.474	0.544	0.488	0.473	0.486	1.05	1.18	1.06	0.94	1.02
PC-14	0.785	1.19	0.78	1.01	1.16	0.302	0.277	0.271	0.247	0.221	0.737	1.01	0.805	0.767	0.842	0.361	0.304	0.316	0.363	0.423
NCI-H1915	0.647	0.667	0.646	0.694	0.659	0.328	0.308	0.304	0.326	0.309	0.965	0.927	0.897	0.878	0.975	0.962	0.996	0.974	0.934	0.976
NCI-H1666	0.881	0.927	0.811	0.8	0.944	0.784	0.807	0.794	0.795	0.728	0.405	0.399	0.53	0.482	0.406	0.599	0.523	0.481	0.736	0.605
HCC-366	0.937	1.16	1.18	1.09	0.933	0.763	0.67	0.669	–	0.596	0.139	0.141	0.25	0.193	0.212	1.12	1.03	1.04	1.08	1.12
SK-MES-1	0.664	0.68	0.634	0.66	0.694	0.433	0.353	0.424	0.355	0.336	0.385	0.421	0.369	0.398	0.432	0.435	0.49	0.446	0.481	0.413
SW 1573	0.711	0.846	0.527	0.69	0.64	0.571	0.545	0.545	0.549	0.38	0.472	0.589	0.595	0.419	0.412	1.2	1.26	1.09	1.05	1.09
NCI-H661	0.783	0.636	0.663	0.677	0.862	0.898	0.945	0.868	0.974	0.79	0.473	0.41	0.378	0.379	0.385	0.634	0.447	0.362	0.519	0.351
PC-3 [JPC-3]	0.763	0.679	0.755	0.785	0.859	1	0.923	1.02	0.989	0.972	0.896	0.866	0.732	0.797	0.763	0.431	0.486	0.444	0.44	0.492
NCI-H1623	0.525	0.414	0.447	0.424	0.506	0.475	0.504	0.534	0.535	0.474	–	–	–	–	–	–	–	–	–	–
Calu-6	–	–	–	–	–	–	–	–	–	–	1.01	0.939	0.887	0.949	0.981	1.04	1.04	1.03	1.06	1.01
LC-2-ad	0.952	0.782	0.973	0.934	0.821	0.596	0.65	0.568	–	0.593	0.558	0.426	0.716	0.622	0.467	0.998	0.978	0.924	0.904	0.973
CAL-12T	0.746	0.928	0.538	0.661	0.806	0.39	0.613	0.411	0.496	0.396	0.502	0.57	–	0.588	0.518	0.655	0.578	0.728	0.749	0.7

Cell Line	relative viability ([1]; first compound 0.0025 µM)	relative viability ([1]; first compound 0.007906 µM)	relative viability ([1]; first compound 0.025 µM)	relative viability ([1]; first compound 0.07906 µM)	relative viability ([1]; first compound 0.25 µM)	relative viability (IDH-C35 + Dasatinib; first compound 0.08 µM)	relative viability (IDH-C35 + Dasatinib; first compound 0.253 µM)	relative viability (IDH-C35 + Dasatinib; first compound 0.8 µM)	relative viability (IDH-C35 + Dasatinib; first compound 2.53 µM)	relative viability (IDH-C35 + Dasatinib; first compound 8 µM)	relative viability ([2]; first compound 0.0025 µM)	relative viability ([2]; first compound 0.007906 µM)	relative viability ([2]; first compound 0.025 µM)	relative viability ([2]; first compound 0.07906 µM)	relative viability ([2]; first compound 0.25 µM)	relative viability (IDH-C35 + Lapatinib; first compound 0.08 µM)	relative viability (IDH-C35 + Lapatinib; first compound 0.253 µM)	relative viability (IDH-C35 + Lapatinib; first compound 0.8 µM)	relative viability (IDH-C35 + Lapatinib; first compound 2.53 µM)	relative viability (IDH-C35 + Lapatinib; first compound 8 µM)
RERF-LC-KJ	0.589	0.519	0.598	0.681	0.627	0.894	0.76	0.898	0.964	0.761	0.623	0.527	0.557	0.518	0.587	0.939	0.856	0.91	0.802	0.773
NCI-H1650	0.788	0.657	0.755	0.817	0.631	0.328	0.35	0.328	0.269	0.304	0.575	0.587	0.714	0.67	0.708	0.785	0.835	0.692	0.285	0.664
BEN	0.31	0.293	0.357	0.317	0.292	0.308	0.373	0.289	0.333	0.293	0.557	0.512	0.435	0.593	0.556	0.796	0.805	0.724	0.718	0.865
EMC-BAC-2	0.416	0.403	0.394	0.43	0.416	0.355	0.346	0.348	0.298	0.281	0.512	0.573	0.521	0.505	0.594	0.916	0.86	0.868	0.895	0.955
NCI-H1299	–	–	–	–	–	–	–	–	–	–	0.772	0.958	0.931	0.944	0.945	1.02	0.975	0.967	0.936	0.898
EBC-1	–	–	–	–	–	–	–	–	–	–	0.396	0.333	0.447	0.493	0.444	0.24	0.228	0.24	0.232	0.236
NCI-H2342	0.588	0.584	0.624	0.618	0.587	0.308	0.381	0.32	0.374	0.299	–	–	–	–	–	–	–	–	–	–
ChaGo-K-1	0.613	0.592	0.602	0.555	0.563	0.64	0.615	0.598	0.63	0.601	0.794	0.608	–	1.01	1.04	–	–	–	–	–
HCC-44	0.676	0.376	0.413	0.516	0.747	–	–	–	–	–	0.615	0.689	0.616	0.6	0.616	0.946	1.02	0.979	1.04	1.02
A549	–	–	–	–	–	–	–	–	–	–	0.391	0.505	0.538	0.52	0.54	0.956	1	0.988	0.947	1.03
SW 900	0.671	0.66	0.55	0.659	0.54	0.534	0.764	0.478	0.578	0.552	–	–	–	–	–	–	–	–	–	–
IA-LM	–	–	–	–	–	–	–	–	–	–	0.393	0.272	0.395	0.347	0.375	0.721	1.03	0.721	0.809	0.535
NCI-H1703	–	–	–	–	–	–	–	–	–	–	0.223	0.224	0.264	0.256	0.242	1.06	1.06	0.866	0.831	1.1
NCI-H441	0.601	0.634	0.707	0.665	0.677	0.629	0.753	0.536	0.673	0.541	0.575	0.446	0.431	0.616	0.656	–	–	–	–	–
LCLC-103H	0.529	0.466	0.467	0.496	0.512	0.485	0.441	0.45	0.423	0.514	0.682	0.615	0.704	0.517	0.721	–	–	–	–	–
NCI-H1648	0.238	0.247	0.303	0.253	0.267	–	–	–	–	–	–	–	–	–	–	–	–	–	–	–
